Experimental data as given in US8137978B2, “Diagnostic method for biomarkers of adverse coronary events” (Saint Louis University, priority 2009, dated 2012).

Assays:
phagocyte = test: 2-BrHDA phagocyte chemoattractant activity; assay type: cell-based; details: phagocytes
[1] = tested on: eosinophil peroxidase in PMA-stimulated eosinophils; details: physiological concentrations of NaCl and NaBr, FIG. 12
Experimental: Further studies have shown that reactive brominating species (RBS), produced by either MPO- or EPO-released by activated neutrophil or eosinophil, respectively, target plasmalogens. […] Bromide was the preferred substrate for eosinophil peroxidase and chloride was not appreciably used even at a 1000-fold molar excess. […] 2-BrHDA is preferentially produced in PMA-stimulated eosinophils (+PMA) incubated in the presence of physiological concentrations of NaCl and NaBr (FIG. 12). […] These findings may have implications in eosinophilic heart disease as well as pulmonary disease and some cancers, which include eosinophil infiltrations.

HepG2 cells = test: 2-chloropalmitic acid metabolism by HepG2 cells (GC-MS); assay type: in vitro ADME; details: added to cell culture medium, FIG. 9 Panel A
From the text: Two other chlorinated lipids that have prognostic value are α-chloroadipic acid and α-ClFA that is complexed (stored) in triglyceride pools. α-ClFA is metabolized by either storage in triglyceride pools or is broken down in the liver (FIG. 8). In brief α-ClFA is omega oxidized to produce dicarboxylic acids that are shortened and eventually excreted in the urine. […] Concomitant with the loss of 2-chloropalmitic acid is the accumulation of the omega oxidation product, 2-chlorohexadecanedioc acid (Panel B of FIG. 9). Further metabolism of 2-chlorohexadecanedioc acid leads to 2-chlorotetradecanedioc acid (Panel C of FIG. 9) and eventually 2-chloroadipic acid (Panel D of FIG. 9). These metabolites were quantified using gas chromatography-mass spectrometry techniques employing conversion of the carboxylic acids and dicarboxylic acids to their pentafluorobenzyl ester derivatives and negative ion-chemical ionization mass spectrometry.

## CCCCCCCCCCCCCCC(Br)C=O (stereo not drawn) [2-BrHDA, 2-bromohexadecanal]
phagocyte
  chemoattractant activity: phagocyte chemoattractant

## [N-]=[N+]=[N-] [azide]
[1]
  2-BrHDA production in the presence of the peroxidase inhibitor: 2-BrHDA was not produced

## CCCCCCCCCCCCCCC(Cl)C(=O)O (stereo not drawn) [2-chlorohexadecanoic acid]
HepG2 cells
  2-chloropalmitic acid remaining in cell culture medium over time: decreases in a time and concentration dependent manner
